Experiment [1] addresses T1, Sodium-dependent noradrenaline transporter (Homo sapiens, UniProt P23975). Briefly: Binding inhibition towards human norepinephrine transporter at 1 uM.
Experiment [2] deals with T2, Sodium-dependent dopamine transporter (Homo sapiens, UniProt Q01959). Briefly: Binding inhibition towards human dopamine transporter at 1 uM.
For experiment [3], the target named is T3, Sodium-dependent serotonin transporter (Homo sapiens, UniProt P31645). The experiment in a line: Binding inhibition towards human serotonin transporter.
T3 sequence (P31645 whole entry): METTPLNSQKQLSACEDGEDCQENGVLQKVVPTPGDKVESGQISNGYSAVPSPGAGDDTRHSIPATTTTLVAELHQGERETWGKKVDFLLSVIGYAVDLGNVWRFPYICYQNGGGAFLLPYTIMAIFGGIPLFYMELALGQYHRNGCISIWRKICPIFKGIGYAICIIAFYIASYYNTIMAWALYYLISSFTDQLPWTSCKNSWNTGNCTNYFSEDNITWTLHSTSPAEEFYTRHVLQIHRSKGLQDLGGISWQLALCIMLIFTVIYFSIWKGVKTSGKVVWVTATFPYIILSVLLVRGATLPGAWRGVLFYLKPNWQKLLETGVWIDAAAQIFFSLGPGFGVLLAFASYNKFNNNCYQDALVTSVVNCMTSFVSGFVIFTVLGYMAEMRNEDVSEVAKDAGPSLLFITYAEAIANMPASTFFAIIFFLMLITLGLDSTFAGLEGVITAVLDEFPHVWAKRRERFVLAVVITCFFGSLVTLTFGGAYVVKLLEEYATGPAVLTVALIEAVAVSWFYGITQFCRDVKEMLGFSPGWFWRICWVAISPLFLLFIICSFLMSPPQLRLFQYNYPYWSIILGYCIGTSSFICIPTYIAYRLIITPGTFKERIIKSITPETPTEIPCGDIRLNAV
In experiment [4] the target is T3, Sodium-dependent serotonin transporter. The experiment in a line: In vitro binding inhibition towards human serotonin transporter.
Experiment [5] addresses T2, Sodium-dependent dopamine transporter. The experiment in a line: Binding inhibition towards human dopamine transporter.
In experiment [6] the target is T1, Sodium-dependent noradrenaline transporter. Briefly: In vitro binding affinity towards human norepinephrine transporter.

Values joined by “and” are separate entries in the source; they are usually repeats but may differ in a detail not shown here. Identical values can stand only once.

T2 sequence (Q01959 whole entry): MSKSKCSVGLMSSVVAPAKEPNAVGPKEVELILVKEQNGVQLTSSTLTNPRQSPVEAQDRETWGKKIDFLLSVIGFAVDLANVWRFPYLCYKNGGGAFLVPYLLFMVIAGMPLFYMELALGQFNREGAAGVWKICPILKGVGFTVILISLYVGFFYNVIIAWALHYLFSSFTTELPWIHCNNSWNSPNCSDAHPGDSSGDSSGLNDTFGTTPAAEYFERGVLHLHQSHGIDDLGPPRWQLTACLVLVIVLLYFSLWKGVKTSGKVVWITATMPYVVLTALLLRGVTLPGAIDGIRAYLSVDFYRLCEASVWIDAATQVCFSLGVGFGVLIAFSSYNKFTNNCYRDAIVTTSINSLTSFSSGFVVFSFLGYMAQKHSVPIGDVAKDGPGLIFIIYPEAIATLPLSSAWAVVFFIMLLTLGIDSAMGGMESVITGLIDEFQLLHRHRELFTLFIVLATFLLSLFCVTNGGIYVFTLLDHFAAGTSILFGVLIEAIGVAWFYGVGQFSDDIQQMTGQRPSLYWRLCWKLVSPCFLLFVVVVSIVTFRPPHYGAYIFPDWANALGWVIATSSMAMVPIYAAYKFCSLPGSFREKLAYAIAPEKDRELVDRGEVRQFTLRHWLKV
T1 sequence (P23975 whole entry): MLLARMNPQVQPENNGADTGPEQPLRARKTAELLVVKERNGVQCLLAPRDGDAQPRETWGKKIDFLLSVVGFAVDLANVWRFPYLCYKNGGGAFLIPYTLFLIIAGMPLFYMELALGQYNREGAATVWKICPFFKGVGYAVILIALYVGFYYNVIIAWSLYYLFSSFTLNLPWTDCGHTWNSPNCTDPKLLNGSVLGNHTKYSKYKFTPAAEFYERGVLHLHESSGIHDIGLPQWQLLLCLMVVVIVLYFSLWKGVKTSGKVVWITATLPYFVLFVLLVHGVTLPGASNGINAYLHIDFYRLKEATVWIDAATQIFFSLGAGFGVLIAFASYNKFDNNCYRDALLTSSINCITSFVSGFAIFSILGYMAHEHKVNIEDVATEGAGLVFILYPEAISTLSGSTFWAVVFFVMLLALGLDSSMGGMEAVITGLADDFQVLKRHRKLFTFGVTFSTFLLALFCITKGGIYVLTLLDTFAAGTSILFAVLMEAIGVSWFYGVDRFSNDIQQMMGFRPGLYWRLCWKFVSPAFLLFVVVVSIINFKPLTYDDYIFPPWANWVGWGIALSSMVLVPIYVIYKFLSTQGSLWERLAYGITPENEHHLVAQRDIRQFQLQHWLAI

Take `CN(C)C[C@@H]1C[C@@H]1c1c[nH]c2ccc(C#N)cc12` [listing 1 of 3 here]: the inhibition in experiment [1] and in experiment [2] was less than 50% in each case.

For the molecule `CN(C)C[C@H]1C[C@@H]1c1c[nH]c2ccc(F)cc12` [listing 1 of 2 here], the inhibition in experiment [1] and in experiment [2] was less than 50% in each case.

Take `CN(C)C[C@H]1C[C@@H]1c1cn(C)c2ccc(C#N)cc12`: the inhibition in experiment [1] and in experiment [2] was less than 50% in each case. The molecule further returned a Ki in experiment [3] of 6.5 nM.

In the case of `CN(C)C[C@H]1C[C@@H]1c1c[nH]c2c(C#N)cccc12` (racemic), the inhibition in experiment [1] and in experiment [2] was less than 50% throughout. The same molecule registered a Ki in experiment [3] of 0.58 nM.

In the case of `CN(C)C[C@@H]1C[C@H]1c1c[nH]c2ccc(C#N)cc12`, the inhibition in experiment [1] and in experiment [2] was less than 50% in each case. Besides, in experiment [3], the affinity, expressed as Ki, was 8.9 nM.

Turning to `CN(C)C[C@H]1C[C@@H]1c1c[nH]c2c(F)cccc12` (racemic), the inhibition in experiment [1] and in experiment [2] was less than 50% in each case. Also, the affinity in experiment [3] corresponds to a Ki of 10 nM.

For the molecule `CN(C)C[C@H]1C[C@@H]1c1c[nH]c2ccc(C#N)cc12` (racemic) [listing 1 of 2 here], the inhibition in experiment [1] and in experiment [2] was less than 50% throughout.

Turning to `CN(C)C[C@H]1C[C@@H]1c1c[nH]c2ccc(F)cc12` (racemic) [listing 1 of 2 here], the Ki in experiment [3] is 2.1 nM.

Take `CN(C)CCCc1c[nH]c2ccc(C#N)cc12`: the inhibition in experiment [1] and in experiment [2] was less than 50% throughout. In addition, the Ki in experiment [3] amounted to 2 nM.

On to `CN(C)C[C@H]1C[C@@H]1c1c[nH]c2ccc(C#N)cc12`, for which the results for the Ki in experiment [4], in experiment [5] and in experiment [6] were 0.18 nM, 2100 nM and 4600 nM, respectively.

In turn, `CN(C)C[C@@H]1C[C@@H]1c1c[nH]c2ccc(C#N)cc12` [listing 2 of 3 here] came in with a Ki in experiment [3] of 7.1 nM. That is a single-digit nanomolar value.

`CN(C)C[C@H]1C[C@H]1c1c[nH]c2ccc(F)cc12` gave a Ki in experiment [3] of 100 nM.

In the case of `CN(C)C[C@@H]1C[C@@H]1c1c[nH]c2ccc(F)cc12` (stereo in doubt; (-)-16e) [listing 1 of 2 here], the inhibition in experiment [1] and in experiment [2] was less than 50% throughout.

On to `CN(C)C[C@H]1C[C@@H]1c1c[nH]c2ccc(F)cc12` [listing 2 of 2 here], for which the Ki in experiment [3] stood at 0.68 nM. In other words, the sub-nanomolar range.

Take `CN(C)C[C@@H]1C[C@H]1c1c[nH]c2ccc(F)cc12`: the inhibition in experiment [1] and in experiment [2] was less than 50% throughout. For the same molecule, in experiment [3], the affinity, expressed as Ki, was 41 nM.

With `CN(C)C[C@H]1C[C@@H]1c1c[nH]c2cc(C#N)ccc12` (racemic), the inhibition in experiment [1] and in experiment [2] was less than 50% in each case. This molecule also had a Ki in experiment [3] of 7.4 nM.

As for `CCn1cc([C@H]2C[C@@H]2CN(C)C)c2cc(C#N)ccc21`, the inhibition in experiment [1] and in experiment [2] was less than 50% each time. In experiment [3], this molecule showed a Ki of 1.8 nM.

Take `CN(C)C[C@H]1C[C@@H]1c1c[nH]c2ccc(F)cc12` (racemic) [listing 2 of 2 here]: the inhibition in experiment [1] and in experiment [2] was less than 50% in each case.

`CN(C)C[C@H]1C[C@@H]1c1c[nH]c2cccc(C#N)c12` (racemic): in experiment [3], the Ki was 230 nM and 420 nM.

In the case of `CN(C)CCCc1c[nH]c2ccc(F)cc12`, the inhibition in experiment [1] and in experiment [2] was less than 50% throughout. The affinity in experiment [3], expressed as Ki, was 4 nM.

On to `CN(C)C[C@H]1C[C@@H]1c1c[nH]c2ccc(C#N)cc12` (racemic) [listing 2 of 2 here], for which, in experiment [3], the Ki came out at 0.56 nM.

Turning to `CN(C)C[C@H]1C[C@H]1c1c[nH]c2ccc(C#N)cc12`, the inhibition in experiment [1] and in experiment [2] was less than 50% throughout. The affinity in experiment [3] corresponds to a Ki of 5.7 nM.

On to `CN(C)C[C@H]1C[C@@H]1c1c[nH]c2cc(F)ccc12` (racemic), for which the inhibition in experiment [1] and in experiment [2] was less than 50% each time. The same molecule displayed a Ki in experiment [3] of 38 nM.

`CN(C)C[C@@H]1C[C@@H]1c1c[nH]c2ccc(F)cc12` (stereo in doubt; (-)-16e) [listing 2 of 2 here] gave an inhibition constant Ki in experiment [3] of 14 nM. This counts as double-digit nanomolar.

As to `CN(C)C[C@H]1C[C@@H]1c1c[nH]c2cccc(F)c12` (racemic), the inhibition in experiment [1] and in experiment [2] was less than 50% each time. Further, the affinity in experiment [3] corresponds to a Ki of 59 nM.

`CN(C)C[C@@H]1C[C@@H]1c1c[nH]c2ccc(C#N)cc12` [listing 3 of 3 here]: the Ki in experiment [3] worked out at 17 nM.

Consider `CN(C)C[C@@H]1C[C@@H]1c1c[nH]c2ccc(F)cc12` (stereo in doubt; 16e) [listing 1 of 2 here], for which the inhibition in experiment [1] and in experiment [2] was less than 50% each time.

Molecule `CN(C)C[C@@H]1C[C@@H]1c1c[nH]c2ccc(F)cc12` (stereo in doubt; 16e) [listing 2 of 2 here] returned a Ki in experiment [3] of 24 nM. In other words, the double-digit nanomolar range.

The inhibition is the change of the read-out against control, counted positive when it falls. High values mean a strong effect, low ones a weak effect. The Ki is a dissociation constant, usually derived from enzyme kinetics or from competition with a known ligand. Low values mean higher affinity, high ones lower affinity.
